Measurements as given in PubChem BioAssay (NCI).
Values joined by “and” are separate entries in the source; they are usually repeats but may differ in a detail not shown here. Identical values can stand only once.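 Following 48 hours of exposure in 96-well plates, responses at five concentrations were used to interpolate endpoints linearly. TGI is the concentration that stops growth completely.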

Columns and labels:
Test in all cases: NCI tumour cell line growth inhibition, 48 h
786-0 renal = system: 786-0 renal
IGROV1 ovarian = system: IGROV1 ovarian
KM12 colon = system: KM12 colon
SF-268 CNS = system: SF-268 CNS
SF-295 CNS = system: SF-295 CNS
SK-OV-3 ovarian = system: SK-OV-3 ovarian
SN12C renal = system: SN12C renal
SNB-19 CNS = system: SNB-19 CNS
SW-620 colon = system: SW-620 colon
UACC-257 melanoma = system: UACC-257 melanoma

Compound | TGI (786-0 renal) | TGI (IGROV1 ovarian) | TGI (KM12 colon) | TGI (SF-268 CNS) | TGI (SF-295 CNS) | TGI (SK-OV-3 ovarian) | TGI (SN12C renal) | TGI (SNB-19 CNS) | TGI (SW-620 colon) | TGI (UACC-257 melanoma)
Nc1c(C(=O)c2ccc(Cl)c(Cl)c2)[nH]c(NCc2ccccc2)c1C(=S)Nc1ccccc1 | 27.9 µM | 26.5 µM | 10.5 µM | 31.5 µM | 15 µM | 32.2 µM | 29.2 µM | 37.7 µM | 10.1 µM | 30.5 µM
C=C1CCC[C@@H](C)C(O)[C@@H]2OC(=O)C(=C)[C@@H]2C[C@@H](OC(C)=O)[C@@]2(C)CC[C@@H]1O2 (stereo not given in full) | 20.1 µM | 15.4 µM | 14.6 µM | 15.7 µM | 38.5 µM | 40.8 µM | 16 µM | > 50 µM | 16.7 µM | 15.2 µM
COC(=O)c1sc(=O)sc1SCc1cccc(CSc2sc(=O)sc2C(=O)OC)c1 | 31.4 µM | > 100 µM | > 100 µM | 86.1 µM | > 100 µM | 51.4 µM | > 100 µM | 61.6 µM | > 100 µM | > 100 µM
COC1CC(C)(NC(=O)C(F)(F)F)C2OC(c3ccccc3)OCC2O1 (stereo not given) | > 100 µM | > 100 µM | > 100 µM | > 100 µM | > 100 µM | > 100 µM | > 100 µM | > 100 µM | > 100 µM | > 100 µM
Cn1c(=O)c2c(nc3[nH]c(=O)c(Br)cn32)n(C)c1=O | > 100 µM | > 100 µM | > 100 µM | > 100 µM | > 100 µM | > 100 µM | > 100 µM | > 100 µM | > 100 µM | > 100 µM
Cc1c(C)c2c(c(N)c1C#N)C(=O)N(N)C2=O | > 100 µM | > 100 µM | > 100 µM | > 100 µM | > 100 µM | > 100 µM | > 100 µM | > 100 µM | > 100 µM | > 100 µM
N#Cc1c(-c2ccc([N+](=O)[O-])cc2)c(C#N)c(=O)n(NS(=O)(=O)c2ccccc2)c1S | > 100 µM | 48.3 µM | > 100 µM | > 100 µM | > 100 µM | > 100 µM | 34.9 µM | > 100 µM | 45.7 µM | > 100 µM
N#Cc1nc(CCc2nc(C#N)c(N)o2)oc1N | > 10 µM | > 10 µM | > 10 µM | > 10 µM | > 10 µM | > 10 µM | > 10 µM | > 10 µM | > 10 µM | > 10 µM
COC(=O)C1OC(O[C@H]2CC[C@]3(C)[C@H]4CC=C5[C@@H]6CC(C)(C)CC[C@]6(C(=O)OC6OCC(O)C(O)C6OC6OC(C)C(OC7OCC(O)C(O)C7O)C(O)C6O)[C@H](O)C[C@@]5(C)[C@]4(C)CC[C@H]3C2(C)C)C(O)C(O)C1O (stereo not given in full) | 19 µM and 21.8 µM | > 80.4 µM and 26.8 µM | 13.1 µM and 13 µM | 22.4 µM and 23.2 µM | 13.7 µM and 14.9 µM | 23.5 µM and 26.3 µM | 3.62 µM and 3.7 µM | 17.5 µM and 21.9 µM | > 57 µM and 27.2 µM | 8.87 µM and 18.6 µM
COC(=N)C1(C#N)NC(c2ccsc2)C(C#N)(C#N)NC1c1ccsc1 (stereo not given) | > 100 µM | > 100 µM | > 100 µM | > 100 µM | > 100 µM | > 100 µM | > 100 µM | > 100 µM | > 100 µM | > 100 µM
CN1CCN(C(=O)c2cn(Cc3cncn3Cc3ccc4c(c3)OCO4)cc2-c2cccc3ccccc23)CC1 | > 86 µM | > 100 µM | > 58.3 µM | 66.5 µM | 70.6 µM | > 100 µM | > 100 µM | > 100 µM | > 100 µM | 42.7 µM
CC(=O)CC1(CBr)Nc2ccc([N+](=O)[O-])cc2NC1=O (stereo not given) | > 100 µM | > 100 µM | > 100 µM | > 100 µM | > 100 µM | > 100 µM | > 100 µM | > 100 µM | > 100 µM | > 100 µM
N#Cc1c(NC(=S)Nc2ccc(Cl)cc2)sc2c1CCN(N1CCc3c(sc(NC(=S)Nc4ccc(Cl)cc4)c3C#N)C1)C2 | 58.8 µM | 47.8 µM | > 100 µM | > 100 µM | 50.4 µM | > 100 µM | > 100 µM | > 100 µM | > 100 µM | > 100 µM
CC(Nc1ccc(Cl)cc1)c1ccncc1 (stereo not given) | > 100 µM | > 100 µM | > 100 µM | > 100 µM | > 100 µM | 11.8 µM | > 100 µM | > 100 µM | > 100 µM | > 100 µM
C[n+]1cccc2ccc3cccnc3c21 | > 100 µM | > 100 µM | 96.6 µM | 55.8 µM | > 100 µM | > 100 µM | > 100 µM | > 100 µM | > 100 µM | > 100 µM
C=C1c2nc3ccccc3n2C=C(c2ccc(C)cc2)N1c1ccc(OC)cc1 | > 100 µM | > 100 µM | 63.3 µM | > 100 µM | > 100 µM | > 100 µM | > 100 µM | > 100 µM | > 100 µM | > 100 µM
Cc1nc(NC(C)(CO)CO)nc(N/N=C/c2ccc(Cl)cc2)c1C(=O)Nc1ccc(Cl)cc1 | > 100 µM | > 100 µM | > 100 µM | > 100 µM | > 100 µM | > 100 µM | > 100 µM | > 100 µM | > 100 µM | > 100 µM
CC(C)(C)C1CCC2c3c([nH]c4ccccc34)C3C(=O)N(c4ccc([N+](=O)[O-])cc4)C(=O)C3C2C1 (stereo not given) | 18.9 µM | > 100 µM | 35.7 µM | 34.8 µM | 93.8 µM | 73.9 µM | 20.8 µM | 67.5 µM | > 100 µM | > 100 µM
O=C(O)C(Cc1ccccc1)NCc1c(O)ccc2c(-c3ccccc3)cc(=O)oc12 (stereo not given) | > 100 µM | > 100 µM | > 100 µM | > 100 µM | > 100 µM | > 100 µM | > 100 µM | > 100 µM | > 100 µM | > 100 µM
COP(=O)(OC)OCN(C)CC/C=C(\C)CC/C=C(\C)CCC=C(C)C | 31.3 µM | 25.8 µM | 30 µM | 30.8 µM | 32.5 µM | > 100 µM | 32.1 µM | 25.6 µM | 30.4 µM | 19.2 µM
